# Results as given in ChEMBL document CHEMBL5537142 (Eur J Med Chem, 2024).
# Active and inactive are the calls of the source. The calls are words filed in the database; no cut-off is given here.
# Key:
# MDA-MB-231 [1] = assay: Inhibition of cell viability in human MDA-MB-231 cells at 100 uM incubated for 72 hrs by resazurin based assay; type: functional
# MDA-MB-468 [2] = assay: Inhibition of cell viability in human MDA-MB-468 cells at 100 uM incubated for 72 hrs by resazurin based assay; type: functional
# MCF7 [3] = assay: Inhibition of cell viability in human MCF7 cells at 100 uM incubated for 72 hrs by resazurin based assay; type: functional
# MDA-MB-468 [4] = assay: Induction of cell death in human MDA-MB-468 cells at 0.05 to 200 uM incubated for 72 hrs by resazurin based assay; type: functional; details: dose 0.05-200 µM
# MDA-MB-231 [5] = assay: Induction of cell death in human MDA-MB-231 cells at 0.05 to 200 uM incubated for 72 hrs by resazurin based assay; type: functional; details: dose 0.05-200 µM
# MCF7 [6] = assay: Induction of cell death in human MCF7 cells at 0.05 to 200 uM incubated for 72 hrs by resazurin based assay; type: functional; details: dose 0.05-200 µM
# [7] = Solubility of compound incubated for 5 mins by absorbance based assay; type: physicochemical
# MDA-MB-231 [8] = assay: Cytotoxicity against human MDA-MB-231 cells assessed as cell viability at 100 uM incubated for 72 hrs by resazurin based assay relative to control; type: functional; details: read-out: Activity
# MDA-MB-468 [9] = assay: Inhibition of cell viability in human MDA-MB-468 cells upto 100 uM incubated for 72 hrs by resazurin based assay relative to control; type: functional; details: up to 100 µM
# [10] = target: T1, Dihydrofolate reductase (Homo sapiens) (UniProt P00374); details: MDA-MB-468, dose 1.0 nM, time 24.0 hrs
# T1 sequence (whole entry): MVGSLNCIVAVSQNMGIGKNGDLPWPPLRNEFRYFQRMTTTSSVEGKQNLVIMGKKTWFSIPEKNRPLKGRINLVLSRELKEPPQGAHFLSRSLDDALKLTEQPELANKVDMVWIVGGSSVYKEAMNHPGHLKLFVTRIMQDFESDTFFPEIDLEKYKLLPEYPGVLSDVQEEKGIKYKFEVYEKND
# MCF7 [11] = assay: Cytotoxicity against human MCF7 cells assessed as cell viability at 100 uM incubated for 72 hrs by resazurin based assay relative to control; type: functional; details: read-out: Activity
# MCF7 [12] = assay: Inhibition of cell viability in human MCF7 cells upto 100 uM incubated for 72 hrs by resazurin based assay relative to control; type: functional; details: up to 100 µM
# [13] = target: T1, Dihydrofolate reductase (Homo sapiens); details: MDA-MB-468, dose 10.0 nM, time 24.0 hrs
# MDA-MB-231 [14] = assay: Inhibition of cell viability in human MDA-MB-231 cells upto 100 uM incubated for 72 hrs by resazurin based assay relative to control; type: functional; details: up to 100 µM
# MDA-MB-468 [15] = assay: Cytotoxicity against human MDA-MB-468 cells assessed as cell viability at 100 uM incubated for 72 hrs by resazurin based assay relative to control; type: functional; details: read-out: Activity
SMILES,inhibition (MDA-MB-231 [1]),inhibition (MDA-MB-468 [2]),inhibition (MCF7 [3]),solubility at 5 min [7],other results
Nc1ncc(-c2ccc(F)cc2Br)c(N)n1,inactive,inactive,inactive,–,–
Nc1ncc(-c2ccc3ccccc3c2)c(N)n1,Active,Active,Active,> 100 µM,Activity (MDA-MB-468 [4]): Active; Activity (MDA-MB-231 [5]): Active; Activity (MCF7 [6]): Active
Nc1ncc(-c2ccc(Cl)c(Cl)c2)c(N)n1,–,–,–,> 100 µM,–
CCc1nc(N)nc(N)c1-c1ccc(Cl)cc1 [PYRIMETHAMINE],–,–,–,> 100 µM,viability at 100 µM (MDA-MB-231 [8]): ~50%; inhibition (INH) (MDA-MB-468 [9]): ~50%; inhibition [10]: 40%; viability at 100 µM (MCF7 [11]): ~50%; inhibition (INH) (MCF7 [12]): ~50%; inhibition [13]: Active; inhibition (INH) (MDA-MB-231 [14]): ~50%; viability at 100 µM (MDA-MB-468 [15]): ~50%
Nc1ncc(-c2ccc(Cl)c([N+](=O)[O-])c2)c(N)n1,–,–,–,> 100 µM,–
COc1ccc(CNc2ccc(-c3cnc(N)nc3N)cc2[N+](=O)[O-])cc1,Active,Active,Active,~10 µM,Activity (MDA-MB-468 [4]): Active; Activity (MDA-MB-231 [5]): Active; Activity (MCF7 [6]): Active
CC(C)c1ccc(-c2cnc(N)nc2N)cc1,–,–,inactive,> 100 µM,–
CC(C)(C)c1ccc(-c2cnc(N)nc2N)cc1,–,Active,–,–,–
Nc1ncc(-c2ccc(N3CCCC3)c([N+](=O)[O-])c2)c(N)n1,Active,Active,Active,> 100 µM,Activity (MDA-MB-468 [4]): Active; Activity (MDA-MB-231 [5]): Active; Activity (MCF7 [6]): Active
NCCCCCCNc1ccc(-c2cnc(N)nc2N)cc1[N+](=O)[O-],Active,Active,Active,> 100 µM,Activity (MDA-MB-468 [4]): Active; Activity (MDA-MB-231 [5]): Active; Activity (MCF7 [6]): Active
Nc1ncc(-c2cccc(Cl)c2)c(N)n1,–,–,–,> 100 µM,–
CN(Cc1ccccc1)c1ccc(-c2cnc(N)nc2N)cc1[N+](=O)[O-],–,–,inactive,~10 µM,–
COc1cc(-c2cnc(N)nc2N)ccc1C,–,–,–,> 100 µM,–
Nc1ncc(-c2ccc(Cl)c(F)c2)c(N)n1,–,–,inactive,–,–
Cc1ccc(-c2cnc(N)nc2N)cc1,–,–,inactive,–,–
